From ChEMBL document CHEMBL3132804, “Synthesis and biological evaluation of novel quinoxalinone-based HIV-1 reverse transcriptase inhibitors” (Medchemcomm, 2014)

Assays:
[1] = system: Human immunodeficiency virus 1; experiment: Antiviral activity against wild type HIV1 VSVG infected in 293ET cells assessed as inhibition of viral replication by luciferase reporter gene assay; assay type: functional, organism-based
[2] = system: Human immunodeficiency virus 1; experiment: Selectivity ratio of IC50 for HIV1 VSVG harboring reverse transcriptase Y181C mutant to IC50 for wild type HIV1 VSVG; assay type: functional
[3] = system: Human immunodeficiency virus 1; experiment: Selectivity ratio of IC50 for HIV1 VSVG harboring reverse transcriptase K103N mutant to IC50 for wild type HIV1 VSVG; assay type: functional
[4] = system: Human immunodeficiency virus 1; experiment: Antiviral activity against HIV1 VSVG harboring reverse transcriptase Y181C mutant infected in 293ET cellsassessed as inhibition of viral replication by luciferase reporter gene assay; assay type: functional, organism-based
[5] = system: Human immunodeficiency virus 1; experiment: Antiviral activity against HIV1 VSVG harboring reverse transcriptase K103N mutant infected in 293ET cells assessed as inhibition of viral replication by luciferase reporter gene assay; assay type: functional, organism-based
[6] = Human immunodeficiency virus 1, VSVG, 293ET, read-out: IC50

| Structure (SMILES) | IC50 ([1]; 293et) | IC50 [1, 6] [µM] | Ratio IC50 [2] | Ratio IC50 [3] | IC50 [4] [µM] | IC50 [5] [µM] |
| --- | --- | --- | --- | --- | --- | --- |
| CC1C(=O)Nc2ccc(Cl)cc2N1S(=O)(=O)c1cc(Cl)sc1CO (stereo unspecified) | Not Active | – | – | – | – | – |
| COC(=O)c1sc(-c2cccc(OC)c2)cc1S(=O)(=O)N1c2cc(Cl)ccc2NC(=O)C1C (stereo unspecified) | – | 9.68 | – | – | – | – |
| CON(C)C(=O)c1sccc1S(=O)(=O)N1c2cc(Cl)ccc2NC(=O)C1C (stereo unspecified) | Not Active | – | – | – | – | – |
| CC1C(=O)Nc2ccc(Cl)cc2N1S(=O)(=O)c1cc(Cl)sc1/C=N\c1nccs1 (stereo unspecified) | Not Active | – | – | – | – | – |
| CC1C(=O)Nc2ccc(Cl)cc2N1S(=O)(=O)c1ccsc1C=O (stereo unspecified) | Not Active | – | – | – | – | – |
| COC(=O)c1sc(-c2ccccc2)cc1S(=O)(=O)N1c2cc(Cl)ccc2NC(=O)C1C (stereo unspecified) | – | 9.05 | – | – | – | – |
| CC1C(=O)Nc2ccc(Cl)cc2N1S(=O)(=O)c1ccsc1C(=O)O (stereo unspecified) | Not Active | – | – | – | – | – |
| CC1C(=O)Nc2ccc(Cl)cc2N1S(=O)(=O)c1cc(Cl)sc1CNc1nccs1 (stereo unspecified) | Not Active | – | – | – | – | – |
| CC1C(=O)Nc2ccc(Cl)cc2N1S(=O)(=O)c1ccsc1CNc1nccs1 (stereo unspecified) | Not Active | – | – | – | – | – |
| CC(C)=CCOC(=O)c1sccc1S(=O)(=O)N1c2cc(Cl)ccc2NC(=O)C1C (stereo unspecified) | – | 0.77 | >13 | >13 | > 10 | > 10 |
| COC(=O)c1sccc1S(=O)(=O)N1c2cc(Cl)ccc2NC(=O)C1C (stereo unspecified) | – | – | >50 | 13 | > 10 | 2.6 |
| CC1C(=O)Nc2ccc(Cl)cc2N1S(=O)(=O)c1ccsc1/C=N\c1nccs1 (stereo unspecified) | Not Active | – | – | – | – | – |
| COC(=O)c1sc(-c2ccco2)cc1S(=O)(=O)N1c2cc(Cl)ccc2NC(=O)C1C (stereo unspecified) | – | 1.97 | >5 | >5 | > 10 | > 10 |
| Cc1ccnc2c1NC(=O)c1cccnc1N2C1CC1 [NEVIRAPINE] | – | 0.04 | >250 | 32 | > 10 | 1.29 |
| CC1C(=O)Nc2ccc(Cl)cc2N1S(=O)(=O)c1cc(Cl)sc1-c1cnco1 (stereo unspecified) | – | 4.44 | – | – | – | – |
| CC(C)OC(=O)c1sc(Cl)cc1S(=O)(=O)N1c2cc(Cl)ccc2NC(=O)C1C (stereo unspecified) | – | 5.55 | – | – | – | – |
| COC(=O)c1sc(-c2cccs2)cc1S(=O)(=O)N1c2cc(Cl)ccc2NC(=O)C1C (stereo unspecified) | – | 6.53 | – | – | – | – |
| COC(=O)c1sc(Cl)cc1S(=O)(=O)N1c2cc(Cl)ccc2NC(=O)C1C (stereo unspecified) | – | 0.07 | >143 | 113 | > 10 | 7.94 |
| CC1C(=O)Nc2ccc(Cl)cc2N1S(=O)(=O)c1ccsc1CO (stereo unspecified) | Not Active | – | – | – | – | – |
| CC1C(=O)Nc2ccc(Cl)cc2N1S(=O)(=O)c1cc(Cl)sc1C=O (stereo unspecified) | Not Active | – | – | – | – | – |
| CC(C)OC(=O)c1sccc1S(=O)(=O)N1c2cc(Cl)ccc2NC(=O)C1C (stereo unspecified) | – | 1.09 | >9 | >9 | > 10 | > 10 |
| COC(=O)c1sc(Br)cc1S(=O)(=O)N1c2cc(Cl)ccc2NC(=O)C1C (stereo unspecified) | – | 0.13 | >77 | 49 | > 10 | 6.39 |
| CC(C)NC(=O)c1sccc1S(=O)(=O)N1c2cc(Cl)ccc2NC(=O)C1C (stereo unspecified) | Not Active | – | – | – | – | – |
| CC1C(=O)Nc2ccc(Cl)cc2N1S(=O)(=O)c1cc(Cl)sc1C(=O)O (stereo unspecified) | Not Active | – | – | – | – | – |
| COC(=O)c1sc(I)cc1S(=O)(=O)N1c2cc(Cl)ccc2NC(=O)C1C (stereo unspecified) | – | 0.075 | >133 | 89 | > 10 | 6.68 |
